The source of these data is patent publication US10695330B2, “Methods of treatment” (Global Blood Therapeutics, Inc., priority 2015, dated 2020).

Series [1] concerns the target T1, Hb (Mus musculus, UniProt P01942).
T1 construct: from tissue; host or cells: whole blood (red blood cells) of dosed C57BL / C57BL/6J mice
Description: Bleomycin mouse model: PK/PD (blood and plasma concentrations, Hb occupancy, hemoximetry). The settings on record: bleomycin treated mice; for calculated Hb occupancy: 4 hours after last dose. The class given is in vivo. As to the method: Compound 1 (formulated in dimethylacetamide: polyethylene glycol 400 (PEG400): 40% cavitron at a 1:5:4 ratio) was administered at either low dose (first day 50 mg/kg followed by 40 mg/kg daily) or high dose (first day 150 mg/kg followed by 85 mg/kg daily) via oral gavage to bleomycin treated mice once daily from day 8 to day 15. Animals in group 1 were administered vehicle via oral gavage. The dosing volume was 200 μL. The study animals were sacrificed on day 15 at 4 hours post final dose.
Samples for hemoximetry and pharmacokinetics (PK) were taken 4 hours following the last dose of the dosing regimen. BAL fluid was collected from the lungs of the animals by lavaging the lung with 1 ml Hanks balanced salt media (HBSS). Lungs were harvested from each animal and weighed. They were then inflated by ˜0.5 mL of 10% NBF and fixed in a formalin container for subsequent histopathological analysis.
Compound 1 blood and plasma concentrations were determined by LC-MS 4 hours after the last dose. Both standard and QC blood samples were pre-incubated at 37° C. for 1 hr. After incubation, all standard and QC samples were diluted with 2-fold volume of water to match with the condition of samples. Plasma standard and QC were proceeding without pre-incubation. […] The peak area of m/z 341->203 product ion (Compound 1) was measured against that of the m/z 345->159 product ion 2-hydroxy-6-((2-(1-(propan-2-yl-d7)-1H-pyrazol-5-yl)pyridin-3-yl)methoxy)benzaldehyde in positive ion mode. […]
Hemoglobin occupancy by Compound 1 was calculated by dividing the concentration of Compound 1 in RBCs by the Hb concentration in RBCs (5 mM). RBC was calculated from whole blood and plasma concentration data using the following equation: […]
Hemoximetry measurements (PD analysis) were conducted in a Hemox Analyzer (TCS Scientific Corporation, New Hope, Pa.). […] The absorbance at wavelengths that correspond to the isosbestic point (570 nm) and deoxy Hb (560 nm) was recorded as a function of the sample O2 tension (pO2). […]

Series [2] concerns mice with LPS-induced ALI. Description: LPS-induced acute lung injury mouse model with hypoxic challenge: inflammation, SpO2, survival. Particulars: for survival: after 4 hours of exposure to 5% O2 hypoxia; for increase of SpO2, of control value: 5% O2 hypoxia. The class given is in vivo. How it is done:
Adult, 8-10-week-old male C57BL/6J mice (Jackson Laboratory, Bar Harbor, Me.), were anesthetized with isoflurane, injected with 100 μg LPS (Sigma, St. Louis, Mo.) in 100 μL PBS by direct intratracheal injection. After 24 hours, mice were given Compound 1 (70 or 140 mg/kg formulated in dimethylacetamide, polyethylene glycol 400 (PEG400) and 40% cavitron in a ratio of 1:5:4, respectively) or vehicle only (5 μL/g) by oral gavage 2 hours prior to placement in a hypoxia chamber. Mice were exposed to either 10 or 5% O2 for 4 hours. Oxygen saturation (SaO2) was measured with a pulse oximeter (STARR Life Sciences, Oakmont, Pa.) at baseline and hourly during hypoxic exposure. During hypoxic exposure, mice were monitored continuously and a moribund check was done every 15 minutes. Time to death was assessed by time to moribund status. Mice were determined to be moribund if they could not right themselves when placed in a supine position.
Blood was collected by cardiac puncture in the hypoxic chamber. Blood gases were measured using the i-STAT portable analyzer within the hypoxic environment (Abaxis, Union City, Calif.). Remaining blood samples were used for hemoximetry and pharmacokinetic analysis. For sample collection, mice were euthanized with pentobarbital overdose. A bronchoaleveolar lavage (BAL) was performed with 900 uL Saline. Blood was collected by retro orbital puncture, and then spun to collect plasma. Lungs were removed and flash frozen. All samples were stored at −80° C. until further study. BAL inflammatory cell counts and differentials were determined manually after staining cytospins with DiffQuik. BAL protein was measured using a Pierce BCA Protein Assay Kit (Thermo Scientific, Waltham, Mass.).
Using a MouseOx, peripheral arterial O2 saturation (SpO2) was measured during hypoxia. SpO2 was measured for each group every hour during hypoxia. In general, SpO2 decreased during hypoxia for all groups. […] For example, during 5% O2 hypoxia, Compound 1 at 70 mg/kg or 140 mg/kg increased SpO2 by 22% or 31% of control value, respectively.
During exposure hypoxia, mice were monitored continuously and a moribund check was done every 15 minutes. Time to death was assessed by time to moribund status. Mice were determined to be moribund if they could not right themselves when placed in a supine position.

T1 sequence (P01942 2-142 limits assumed): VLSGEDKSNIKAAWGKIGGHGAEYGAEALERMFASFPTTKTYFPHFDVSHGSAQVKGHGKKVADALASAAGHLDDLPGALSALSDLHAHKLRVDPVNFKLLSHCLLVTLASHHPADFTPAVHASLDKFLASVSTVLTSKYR
T1 sequence (P02088 2-147 partner limits assumed): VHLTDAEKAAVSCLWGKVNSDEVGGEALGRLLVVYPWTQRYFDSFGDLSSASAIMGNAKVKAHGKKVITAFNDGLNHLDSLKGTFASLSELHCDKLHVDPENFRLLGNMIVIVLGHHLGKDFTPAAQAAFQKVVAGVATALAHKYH

Regarding `O=Cc1c(O)cccc1OC[C@@H]1CCCCN1C(=O)c1cccnc1` [Compound 1, (S)-2-hydroxy-6-((1-nicotinoylpiperidin-2-yl)methoxy)benzaldehyde], the figures for the “calculated Hb occupancy” value in series [1] (high dose regimen (150 then 85 mg/kg daily)) and in series [1] (low dose regimen (50 then 40 mg/kg daily)) were 36.7% and 18.0%, respectively. Also, the “shift in the OEC (Hb-oxygen binding affinity)” value in series [1] (low and high dose) is reported as “significant left shift in the OEC in a dose-response manner”. Also, the “inflammation or lung injury (BALF total cells, neutrophils, macrophages, total protein)” value in series [2] (100 μg LPS intratracheal) is “no significant effect on inflammation or lung injury”. The survival in series [2] (70 mg/kg) was determined as 60%; in series [2] (140 mg/kg), 86%. Further, the entries for the “increase of SpO2, of control value” in series [2] (70 mg/kg) and in series [2] (140 mg/kg) were 22% and 31%, respectively. In addition, the “SpO2 compared to control” value in series [2] (during 10% and 5% O2 hypoxia, average over 4 hours) is “higher in Compound 1 dosed mice compared to control”.
